US7875587B2, “Peptide analogues of GIP for treatment of diabetes, insulin resistance and obesity” (UUTECH Limited, priority 2004, dated 2011)
No end group written: not given here.

Experiments:
[1] = system: BRIN-BD11 cells; assay: Acute tests for insulin secretion from BRIN-BD11 cells; assay type: cell-based; conditions: 5.6 and 16.7 mM glucose, 10^-13 to 10^-8 M peptide
Protocol: Culture of insulin secreting cells. BRIN-BD11 cells were cultured in sterile tissue culture flasks (Corning, Glass Works, UK) using RPMI-1640 tissue culture medium containing 10% (v/v) foetal calf serum, 1% (v/v) antibiotics (100 U/ml penicillin, 0.1 mg/ml streptomycin) and 11.1 mM glucose. The cells were maintained at 37° C. in an atmosphere of 5% CO2 and 95% air using a LEEC incubator (Laboratory Technical Engineering, Nottingham, UK).
Acute tests for insulin secretion. Before experimentation, the cells were harvested from the surface of the tissue culture flasks with the aid of trypsin/EDTA (Gibco), seeded into 24-multiwell plates (Nunc, Roskilde, Denmark) at a density of 1.5×10^5 cells per well, and allowed to attach overnight at 37° C. Acute tests for insulin release were preceded by 40 minutes pre-incubation at 37° C. in 1.0 ml Krebs Ringer bicarbonate buffer (115 mM NaCl, 4.7 mM KCl, 1.28 mM CaCl2, 1.2 mM KH2PO4, 1.2 mM MgSO4, 10 mM NaHCO3, 5 g/l bovine serum albumin, pH 7.4) supplemented with 1.1 mM glucose. Test incubations were performed (n=12) at two glucose concentrations (5.6 mM and 16.7 mM) with a range of concentrations (10^−13 to 10^−8 M) of GIP or GIP analogues. After 20 minutes incubation, the buffer was removed from each well and aliquots (200 μl) were used for measurement of insulin by radioimmunoassay.

[2] = system: ob/ob mice; assay: Once daily i.p. injection for 14 days in ob/ob mice; assay type: in vivo, mouse; conditions: for body weight / food intake / non-fasting plasma insulin: 14 days; for plasma insulin response to glucose (AUC) / glucose tolerance: after 14 daily injections; for glucose tolerance: i.p. glucose 18 mmoles/kg; for insulin sensitivity: after 14 days, insulin 50 U/kg i.p.
Protocol: (§1) Animals. Obese diabetic (ob/ob) mice derived from the colony maintained at Aston University, UK were used at 12-17 weeks of age. The genetic background and characteristics of the colony used have been outlined in detail elsewhere (Bailey, C. J. et al., 1982, Int. J. Obesity 6:11-21; Gault, V. A. et al., 2003, J. Endocrinol. 176: 133-141). Animals were housed in an air-conditioned room at 22±2° C. with a 12 hours light: 12 hours dark cycle. Drinking water and standard rodent maintenance diet (Trouw Nutrition, Cheshire, UK) were freely available. All test solutions were administered by i.p. injection in a final volume of 5 ml/kg bw. Blood was collected from the cut tip of the tail vein of conscious mice into chilled fluoride/heparin microcentrifuge tubes immediately prior to injection and at the times indicated in the Figures. Plasma was separated using a Beckman microcentrifuge (Beckman Instruments, UK) at 13,000 g for 30 second and stored at −20° C. prior to glucose and insulin determinations. All animal experiments were carried out in accordance with the UK Animals (Scientific Procedures) Act 1986.
(§2) Metabolic and dose-response effects of GIP and N-AcGIP(LysPAL) analogues (at 6.25-25 nmoles/kg bw) following glucose administration (18 mmoles/kg bw) were examined in mice fasted for 18 hours. […] Food intake and body weight were recorded daily. Plasma glucose and insulin concentrations were monitored at 2-6 day intervals. At 14 days, groups of animals were used to evaluate intraperitoneal glucose tolerance (18 mmoles/kg) and insulin sensitivity (50 U/kg). In a separate series, two experimental protocols were employed to examine the possibility of GIP receptor desensitization after 14 days treatment. […] At the end of the 14-day treatment period, pancreatic tissues were excised for measurement of insulin following extraction with 5 ml/g ice-cold acid ethanol (75% ethanol, […], 1.5% HCl). Whole blood was taken for determination of glycated hemoglobin.
(§3) Biochemical analyses. Plasma glucose was assayed by an automated glucose oxidase procedure (Stevens, J. F., 1971, Clin. Chem. Acta 32:199-201) using a Beckman Glucose Analyser II (Beckman, Galway, Ireland). Plasma insulin was determined by dextran-charcoal RIA as described previously (Flatt, P. R. et al., 1981, Diabetologia 20: 573-577). Glycated hemoglobin was determined using cation-exchange columns (Sigma, Poole, Dorset, UK) with measurement of absorbance (415 nm) in wash and eluting buffers using a VersaMax microplate spectrophotometer (Molecular Devices, Wokingham, Berkshire, UK).
(§4) Statistics. Results are expressed as mean±SEM. Data were compared using the unpaired Student's t-test. Where appropriate, data were compared using repeated measures ANOVA or one-way ANOVA, followed by the Student-Newman-Keuls post hoc test. Incremental areas under plasma glucose and insulin curves (AUC) were calculated using a computer-generated program employing the trapezoidal rule (Burington, R. S., 1973, Handbook of Mathematical Tables and Formulae, McGraw-Hill, New York) with baseline subtraction.

[3] = system: ob/ob mice; assay: Acute metabolic and dose-response effects with glucose in 18 h fasted ob/ob mice; assay type: in vivo, mouse; conditions: for overall glucose excursion (glucose AUC) compared to glucose alone: 25 nmoles/kg i.p. with glucose 18 mmoles/kg, 0-60 min; for AUC glucose and insulin in dose-response study: 6.25, 12.5 and 25 nmoles/kg with glucose
Protocol: as §1, §2, §3, §4

[4] = target: T1, purified porcine dipeptidylpeptidase IV (Sus scrofa, UniProt P22411); assay: DPP IV degradation studies of fatty acid derivatised GIP analogues; assay type: in vitro ADME
T1 construct: purchased Sigma (Poole, Dorset, UK)
Protocol: DPP IV degradation studies. GIP and fatty acid derivatised GIP analogues were incubated at 37° C. with purified porcine dipeptidylpeptidase IV (5 mU in 50 mmol/l triethanolamine-HCl; pH 7.8) for 0, 2, 4, 8 and 24 hours (final peptide concentration 2 mmol/l). The reactions were subsequently terminated by addition of 10% (v/v) TFA/water and the reaction products separated using HPLC. […] HPLC peak area data were used to calculate % intact peptide remaining throughout the incubation.

T1 sequence (P22411 whole entry): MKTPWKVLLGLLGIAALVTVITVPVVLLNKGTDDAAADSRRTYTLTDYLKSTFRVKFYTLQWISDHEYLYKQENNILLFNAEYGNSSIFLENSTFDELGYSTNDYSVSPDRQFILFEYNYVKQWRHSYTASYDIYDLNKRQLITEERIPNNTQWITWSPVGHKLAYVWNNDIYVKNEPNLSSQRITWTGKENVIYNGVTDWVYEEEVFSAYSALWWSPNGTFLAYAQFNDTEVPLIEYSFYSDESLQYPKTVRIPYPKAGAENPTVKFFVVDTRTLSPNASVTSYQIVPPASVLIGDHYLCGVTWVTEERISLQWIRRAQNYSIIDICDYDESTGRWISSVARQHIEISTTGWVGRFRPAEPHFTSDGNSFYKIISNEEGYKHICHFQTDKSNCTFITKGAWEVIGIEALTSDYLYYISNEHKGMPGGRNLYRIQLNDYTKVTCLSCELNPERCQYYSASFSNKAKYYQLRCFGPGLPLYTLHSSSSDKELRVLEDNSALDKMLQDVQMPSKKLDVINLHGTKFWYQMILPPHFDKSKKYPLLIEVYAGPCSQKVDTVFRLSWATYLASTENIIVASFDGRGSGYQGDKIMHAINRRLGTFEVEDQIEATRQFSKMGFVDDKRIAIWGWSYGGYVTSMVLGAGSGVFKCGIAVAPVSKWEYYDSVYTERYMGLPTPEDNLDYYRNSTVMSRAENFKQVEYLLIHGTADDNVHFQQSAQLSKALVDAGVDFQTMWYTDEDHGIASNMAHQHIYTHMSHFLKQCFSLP

Compound	insulin secretion from BRIN-BD11 cells [1]	body weight ([2]; 12.5 nmoles/kg/day)	food intake ([2]; 12.5 nmoles/kg/day)	non-fasting plasma insulin ([2]; 12.5 nmoles/kg/day)	non-fasting plasma glucose ([2]; 12.5 nmoles/kg/day, at 14 days)	pancreatic weight ([2]; 14 days treatment)	plasma insulin response to glucose (AUC) [2]	glucose tolerance [2]	insulin sensitivity [2]	overall glucose excursion (glucose AUC) compared to glucose alone [3]	AUC glucose and insulin in dose-response study [3]	further results
YAPGTFISDYSIAMDKIHQQDFVNWLLAQKGKKNDWKHNITQ [(Pro^3)GIP]	least potent analogues in terms of insulin release	–	–	–	–	–	–	–	–	–	–	–
CCCCCCCCCCCCCCCC(=O)NCCCC[C@H](NC(=O)[C@H](Cc1c[nH]c2ccccc12)NC(=O)[C@H](CC(=O)O)NC(=O)[C@H](CC(N)=O)NC(=O)[C@H](CCCCN)NC(=O)[C@H](CCCCN)NC(=O)CNC(=O)[C@H](CCCCN)NC(=O)[C@H](CCC(N)=O)NC(=O)[C@H](C)NC(=O)[C@H](CC(C)C)NC(=O)[C@H](CC(C)C)NC(=O)[C@H](Cc1c[nH]c2ccccc12)NC(=O)[C@H](CC(N)=O)NC(=O)[C@@H](NC(=O)[C@H](Cc1ccccc1)NC(=O)[C@H](CC(=O)O)NC(=O)[C@H](CCC(N)=O)NC(=O)[C@H](CCC(N)=O)NC(=O)[C@H](Cc1c[nH]cn1)NC(=O)[C@@H](NC(=O)[C@H](CCCCN)NC(=O)[C@H](CC(=O)O)NC(=O)[C@H](CCSC)NC(=O)[C@H](C)NC(=O)[C@@H](NC(=O)[C@H](CO)NC(=O)[C@H](Cc1ccc(O)cc1)NC(=O)[C@H](CC(=O)O)NC(=O)[C@H](CO)NC(=O)[C@@H](NC(=O)[C@H](Cc1ccccc1)NC(=O)[C@@H](NC(=O)CNC(=O)[C@H](CCC(=O)O)NC(=O)[C@H](C)NC(=O)[C@H](Cc1ccc(O)cc1)NC(C)=O)[C@@H](C)O)[C@@H](C)CC)[C@@H](C)CC)[C@@H](C)CC)C(C)C)C(=O)N[C@@H](Cc1c[nH]cn1)C(=O)N[C@@H](CC(N)=O)C(=O)N[C@H](C(=O)N[C@H](C(=O)N[C@@H](CCC(N)=O)C(=O)O)[C@@H](C)O)[C@@H](C)CC [N-AcGIP(LysPAL^37)]	–	no effect	no effect	tendency towards elevated insulin concentrations	significantly (p<0.05) lowered	did not affect pancreatic weight	greater (p<0.01) overall AUC insulin response	significant improvement in glucose tolerance	significant improvement of insulin sensitivity	significantly lowered glucose AUC	prominent dose-dependent antihyperglycaemic and insulinotropic actions at all doses administered	glycated hemoglobin ([2]; 12.5 nmoles/kg/day, at 14 days): significantly (p<0.01) decreased; pancreatic insulin content ([2]; 14 days treatment): significantly increased; GIP receptor desensitization ([2]; acute 25 nmoles/kg with glucose after 14 days treatment): lack of GIP receptor desensitization; antihyperglycaemic effect compared to glucose alone ([3]; 6.25 nmoles/kg with glucose): highly significant antihyperglycaemic properties; insulin response (AUC) compared to glucose alone ([3]; 6.25 nmoles/kg with glucose): 2.0 fold; enhancement of overall glucose-mediated insulin release (AUC) compared to native GIP ([3]; 25 nmoles/kg i.p. with glucose): 2.3 fold; overall glucose excursion compared to native GIP ([3]; 25 nmoles/kg i.p. with glucose): decreased the overall glucose excursion; potency at stimulating insulin secretion relative to N-AcGIP(LysPAL^16) ([3]; 25 nmoles/kg i.p. with glucose): 1.5 fold; % Intact peptide remaining after time (hours) ([4]; incubation with DPP IV, 0 h): 100%; % Intact peptide remaining after time (hours) ([4]; incubation with DPP IV, 24 h): remained completely intact
CC[C@H](C)[C@H](NC(=O)[C@H](CO)NC(=O)[C@H](Cc1ccc(O)cc1)NC(=O)[C@H](CC(=O)O)NC(=O)[C@H](CO)NC(=O)[C@@H](NC(=O)[C@H](Cc1ccccc1)NC(=O)[C@@H](NC(=O)CNC(=O)[C@H](CCC(=O)O)NC(=O)[C@H](C)NC(=O)[C@@H](N)Cc1ccc(O)cc1)[C@@H](C)O)[C@@H](C)CC)C(=O)N[C@@H](C)C(=O)N[C@@H](CCSC)C(=O)N[C@@H](CC(=O)O)C(=O)N[C@@H](CCCCN)C(=O)N[C@H](C(=O)N[C@@H](Cc1c[nH]cn1)C(=O)N[C@@H](CCC(N)=O)C(=O)N[C@@H](CCC(N)=O)C(=O)N[C@@H](CC(=O)O)C(=O)N[C@@H](Cc1ccccc1)C(=O)N[C@H](C(=O)N[C@@H](CC(N)=O)C(=O)N[C@@H](Cc1c[nH]c2ccccc12)C(=O)N[C@@H](CC(C)C)C(=O)N[C@@H](CC(C)C)C(=O)N[C@@H](C)C(=O)N[C@@H](CCC(N)=O)C(=O)N[C@@H](CCCCN)C(=O)NCC(=O)N[C@@H](CCCCN)C(=O)N[C@@H](CCCCN)C(=O)N[C@@H](CC(N)=O)C(=O)N[C@@H](CC(=O)O)C(=O)N[C@@H](Cc1c[nH]c2ccccc12)C(=O)N[C@@H](CCCCN)C(=O)N[C@@H](Cc1c[nH]cn1)C(=O)N[C@@H](CC(N)=O)C(=O)N[C@H](C(=O)N[C@H](C(=O)N[C@@H](CCC(N)=O)C(=O)O)[C@@H](C)O)[C@@H](C)CC)C(C)C)[C@@H](C)CC [GIP 1–42, reference compound]	prominent and dose-related stimulation of insulin secretion	no effect	no effect	unchanged	unchanged	did not affect pancreatic weight	had no effect	had no effect	did not affect the characteristic insulin resistance	failed to reach significance	did not significantly affect	overall insulinotropic response compared with glucose alone ([3]; 25 nmoles/kg i.p. with glucose): significantly elevated the overall insulinotropic response; % Intact peptide remaining after time (hours) ([4]; pig, 0 h): 100%; % Intact peptide remaining after time (hours) ([4]; pig, 2 h): 52±3%; % Intact peptide remaining after time (hours) ([4]; pig, 8 h): entirely degraded
